The values that follow come from PubChem BioAssay (NCI).

Experiment in all cases: NCI-60 cell line screen, 48 h
The subject of assay [1] is U251 CNS.
Assay [2] has as its system A498 renal.
Assay [3] has as its system 786-0 renal.
The test system of assay [4] is SK-MEL-2 melanoma.
Assay [5] relates to MOLT-4 leukemia.
Assay [6] deals with HCT-116 colon.
In assay [7] the test system is NCI-H226 lung.
The subject of assay [8] is TK-10 renal.
For assay [9], the system named is M14 melanoma.
The test system of assay [10] is IGROV1 ovarian.

Structures are written as SMILES. Several values for one entry are separate records, joined by “and”; a condition that tells them apart may be missing. Identical values can stand only once.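 Cells were grown in 96-well plates and exposed to each compound for 48 hours at five concentrations; endpoints were interpolated linearly between bracketing concentrations, or set to the highest concentration if not reached. GI50 marks 50% less growth. TGI marks complete inhibition of growth.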

Regarding `C/C(=N/N=C(N)N)c1ccc(NC(=O)Nc2ccc(/C(C)=N/N=C(N)N)cc2)cc1`, the GI50 in [1] was 7.94 µM; in [2], 23.5 µM; in assay [3], 10.7 µM; in assay [4] it was 18.4 µM; in assay [5] it was 25.7 µM; in assay [6], 28 µM. The GI50 in [7] was 25 µM; in [8] it was 6.2 µM; in assay [9] it was 35.7 µM; in assay [10] it was 7.47 µM. Also, the TGI was 24.3 µM in assay [1]; 69.9 µM in assay [2]; 30.1 µM in [3]; 60.6 µM in assay [4]; > 100 µM in [5]; > 100 µM in [6]. In addition, the TGI was > 94.6 µM in assay [7], 33.8 µM in assay [8], > 75.1 µM in assay [9] and 23.9 µM in assay [10].
Consider `CC1=C([Se]CC(OC(=O)[C@@H](CO)NC(=O)OC(C)(C)C)C(=O)NCCCCCC(=O)OCc2ccccc2)C(=O)c2ccccc2C1=O` (some centres undefined), for which the GI50 in assay [1] was 0.94 µM; in [2], 2.02 µM; in assay [3], 2.08 µM; in [4], 2.26 µM; in [5] it was 1.39 µM; in assay [6] it was 1.39 µM. Also, the GI50 in [7] is 2.25 µM; in assay [8], 2.04 µM; in assay [9], 1.79 µM; in [10], 1.79 µM. Also, the TGI in [1] amounted to 2.17 µM; in [2] it was 5.93 µM; in assay [3] it was 3.53 µM; in assay [4], 4.08 µM; in assay [5], 4.93 µM; in assay [6] it was 2.73 µM. In addition, the TGI in assay [7] was determined as 4.41 µM; in assay [8] it was 3.47 µM; in assay [9], 3.3 µM; in assay [10] it was 3.37 µM.
For `CCOC(=O)C1(Br)S(=O)(=O)OCCOS1(=O)=O`, the TGI in [1], in assay [2], in assay [3], in assay [4], in assay [5] and in assay [6] was > 100 µM in each case. Moreover, the TGI in assay [7], in assay [8], in assay [9] and in assay [10] was > 100 µM throughout.
For `C/C(=N\NC(=O)CC(=O)N(C(=O)c1ccc(Cl)cc1)c1ccc(C)cc1)c1ccccc1O`, the TGI in [1], in assay [2], in [3], in assay [4], in assay [5] and in assay [6] was > 100 µM each time. For the same molecule, the TGI in assay [7], in assay [8], in assay [9] and in assay [10] was > 100 µM throughout.
On to `COc1cccc2c1C(=O)c1c(O)c3c(c(O)c1C2=O)CC(O)(C(=O)CO)CC3OC1CC(N)C(O)C(C)O1` (centres undefined), for which the GI50 in assay [1] was 2.22 µg/mL and 6.15 µg/mL; in assay [2], 19 µg/mL and 33.8 µg/mL; in [3] it was 6.54 µg/mL and 10.4 µg/mL; in assay [4], 24.1 µg/mL and 44.3 µg/mL; in [5], 1.13 µg/mL and 1.46 µg/mL; in [6] it was 7.26 µg/mL and 17.4 µg/mL. Further, the GI50 in [7] was 1.75 µg/mL and 7.36 µg/mL; in [8], 75 µg/mL and 30 µg/mL; in assay [9], 9.35 µg/mL and 48.5 µg/mL; in assay [10] it was 16.1 µg/mL and 60.1 µg/mL. In addition, the TGI in assay [1] is 75 µg/mL and 44 µg/mL; in assay [2], 75 µg/mL and > 150 µg/mL; in [3], 75 µg/mL and > 150 µg/mL; in assay [4], 75 µg/mL and 138 µg/mL; in assay [6], 75 µg/mL and > 150 µg/mL; in [7], 12.6 µg/mL and 28.5 µg/mL. For the same molecule, the TGI in [8] was 75 µg/mL and > 150 µg/mL; in assay [9], 75 µg/mL and > 150 µg/mL; in assay [10], 75 µg/mL and > 150 µg/mL.
Consider `CN(C)CCNC(=O)NC[C@H]1CC[C@@H]2[C@H](O1)c1cc(C(F)(F)F)ccc1N[C@H]2c1ccccc1`, for which the GI50 in assay [1] was 0.0537 µM; in [2], 0.196 µM; in assay [3], 5.42 µM; in assay [4], 0.15 µM; in [5] it was 0.373 µM; in [6] it was 0.0414 µM. The GI50 is 15.1 µM in assay [7], 9.78 µM in assay [8], 0.041 µM in [9] and 0.578 µM in assay [10]. For the same molecule, the TGI in assay [1] was 1.69 µM; in [2], 10.5 µM; in assay [3], 36.3 µM; in assay [4], 2.32 µM; in [5], 19.6 µM; in assay [6], 14.7 µM. For the same molecule, the TGI in assay [7] worked out at 43.4 µM; in [8] it was 27.5 µM; in assay [9] it was 0.684 µM; in assay [10] it was 40.7 µM.
`COC1=CC(=O)c2nc(Cl)ccc2C1=O`: the GI50 in assay [1] is 1.66 µM; in assay [2], 12 µM; in assay [3] it was 2.02 µM; in assay [4] it was 2.07 µM; in assay [5], 0.807 µM; in assay [6] it was 1.75 µM. Also, the GI50 was 7.61 µM in assay [7], 2.09 µM in [8], 1.92 µM in assay [9] and 1.86 µM in assay [10]. For the same molecule, the TGI in assay [1] amounted to 3.03 µM; in [2] it was 24.3 µM; in assay [3], 3.76 µM; in [4], 3.98 µM; in [5], 7.77 µM; in assay [6] it was 3.24 µM. For the same molecule, the TGI is 21.5 µM in assay [7], 4.23 µM in assay [8], 3.52 µM in [9] and 3.54 µM in assay [10].
Turning to `O=C(/C=C/OC(=O)c1cccc(Cl)c1)c1ccc(Cl)cc1`, the GI50 in assay [1] is 38.1 µM; in assay [2], > 40.3 µM; in [3] it was > 91.7 µM; in assay [4], > 73.1 µM; in assay [5], 31.8 µM; in assay [6], 31.3 µM. For the same molecule, the GI50 was > 79 µM in assay [7], 32.7 µM in [8], 34.6 µM in [9] and > 46.8 µM in assay [10]. Besides, the TGI in assay [1] was > 100 µM; in assay [2], 96.9 µM; in assay [3], > 100 µM; in assay [4] it was > 100 µM; in assay [5] it was > 78.6 µM; in assay [6] it was > 100 µM. In addition, the TGI in [7], in assay [8], in assay [9] and in assay [10] was > 100 µM each time.
Take `CN(C)CCOC(=O)Nc1nc2ccc(Sc3ccccc3)cc2[nH]1`: the GI50 was 3.04 µM in assay [1]; 2.62 µM in assay [2]; 3.8 µM in assay [3]; 5.55 µM in [4]; 5.32 µM in [5]; 3.16 µM in assay [6]. The GI50 was 4.61 µM in assay [7], 11 µM in assay [8], 2.28 µM in [9] and 6.32 µM in [10]. The TGI in assay [1] amounted to 12.1 µM; in assay [2], 10.6 µM; in assay [3], 15 µM; in [4], 22.2 µM; in assay [5] it was 20.1 µM; in [6], 12.6 µM. Besides, the TGI in assay [7] stood at 28.1 µM; in assay [8], 25.5 µM; in assay [9], 9.29 µM; in assay [10], 27.6 µM.
`O=c1c2c(c1=O)-c1ccccc1CN2`: the TGI in assay [1], in assay [2], in assay [3], in [4], in assay [5] and in assay [6] was > 100 µM throughout. Also, the TGI in assay [7], in assay [8], in assay [9] and in assay [10] was > 100 µM each time.
Take `COc1cc(/C=C/C(=O)c2c(C)nc3ccccc3c2C)ccc1OCCCN1CCN(C(=O)c2ccco2)CC1`: the GI50 in [1] was 7.95 µM; in [2], 4.14 µM; in [3], 7.83 µM; in [4], 16.1 µM; in assay [5], 0.528 µM; in [6], 3.5 µM. In addition, the GI50 is 13.7 µM in [7], 15.3 µM in [8], 11.6 µM in assay [9] and 6.7 µM in assay [10]. For the same molecule, the TGI in [1] is 20.6 µM; in assay [2], 17.7 µM; in assay [3], 20.5 µM; in [4], 37.7 µM; in [5], 8 µM; in [6], 15.7 µM. Also, the TGI in [7] was 29.9 µM; in [8] it was 30 µM; in assay [9], 23.8 µM; in assay [10], 24.6 µM.
For the molecule `O=C1NC(c2cccc(OCc3ccccc3)c2)Nc2ccccc21` (centres undefined), the TGI was found to be 4.25 µM in [1]; 4.68 µM in assay [2]; 38.8 µM in [3]; 30 µM in assay [4]; 2.77 µM in [5]; 1.93 µM in assay [6]. The TGI in assay [7] was 2.44 µM; in [8] it was > 75.7 µM; in assay [9] it was 38.8 µM; in assay [10], 93.7 µM.
On to `CCOC(=O)C(C(O)c1ccc([N+](=O)[O-])cc1)P(=O)(OCC)OCC` (centres undefined), for which the TGI in assay [1], in assay [2], in assay [3], in assay [4], in assay [5] and in assay [6] was > 100 µM each time. The TGI in assay [7], in assay [8], in [9] and in assay [10] was > 100 µM in each case.
